We go through 12 compounds from patent US10526309B2, “Pan-TAM inhibitors and Mer/Axl dual inhibitors” (The University of North Carolina at Chapel Hill, priority 2015, dated 2020).

For orientation: IC50 means the midpoint of a concentration-inhibition curve.

One assay concerns the target T1, Axl (Homo sapiens, UniProt P30530).
T1 sequence (P30530 26-894): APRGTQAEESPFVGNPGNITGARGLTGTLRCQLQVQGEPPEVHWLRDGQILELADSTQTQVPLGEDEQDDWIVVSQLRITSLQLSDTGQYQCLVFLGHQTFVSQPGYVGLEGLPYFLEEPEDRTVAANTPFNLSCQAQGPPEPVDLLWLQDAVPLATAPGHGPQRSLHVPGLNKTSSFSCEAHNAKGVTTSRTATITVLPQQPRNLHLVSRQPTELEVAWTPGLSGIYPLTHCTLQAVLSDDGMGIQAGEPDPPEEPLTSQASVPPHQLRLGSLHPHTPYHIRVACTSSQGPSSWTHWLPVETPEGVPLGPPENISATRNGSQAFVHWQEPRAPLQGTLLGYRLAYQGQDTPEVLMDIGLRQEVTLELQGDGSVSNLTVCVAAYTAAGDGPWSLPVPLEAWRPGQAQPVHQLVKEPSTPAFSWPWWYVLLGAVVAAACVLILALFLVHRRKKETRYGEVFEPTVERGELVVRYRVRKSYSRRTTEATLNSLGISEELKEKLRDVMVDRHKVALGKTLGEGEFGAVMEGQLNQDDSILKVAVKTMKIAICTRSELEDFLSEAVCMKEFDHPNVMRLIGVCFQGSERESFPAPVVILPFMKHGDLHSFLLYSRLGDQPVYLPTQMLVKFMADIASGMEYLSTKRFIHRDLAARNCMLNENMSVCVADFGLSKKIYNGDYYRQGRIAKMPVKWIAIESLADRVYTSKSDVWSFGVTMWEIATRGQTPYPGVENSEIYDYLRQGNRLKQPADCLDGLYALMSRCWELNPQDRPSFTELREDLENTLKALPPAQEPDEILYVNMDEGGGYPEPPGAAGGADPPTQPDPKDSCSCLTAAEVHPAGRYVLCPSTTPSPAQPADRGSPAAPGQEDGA
Briefly: Axl kinase inhibition IC50. Particulars: Table 2. It counts as biochemical.
In turn, `CN1CCC(c2ccc(Nc3ncc(-c4ccccn4)c(N[C@H]4CC[C@H](O)CC4)n3)cc2)CC1` [UNC5130A] gave an IC50 of 100 to 1000 nM.
Same read-out and setting: under `CN1CCCC(c2ccc(Nc3ncc(-c4ccccn4)c(N[C@H]4CC[C@H](O)CC4)n3)cc2)C1` (stereo partly drawn) [UNC5131A] stands 100 to 1000 nM.

Staying with this assay, now noted: Table 3.
`Cc1cc(C#Cc2cc(NC(=O)C(C)C)ccn2)ccc1Nc1ncc(-c2ccc(CN3CCN(C)CC3)cc2)c(N[C@H]2CC[C@H](O)CC2)n1` [UNC4048A] returned an IC50 of 100 to 1000 nM.

Staying with this assay, now noted: Table 4.
In turn, `O[C@H]1CC[C@H](Nc2nc(Nc3ccc(C#Cc4cc(-c5ncc[nH]5)ccn4)cc3)ncc2-c2ccccn2)CC1` [UNC4357A] returned an IC50 of 1000 to 30000 nM.
The same measure, in the same setting: as for `O[C@H]1CC[C@H](Nc2nc(Nc3ccc(C#Cc4cc(-c5ccn[nH]5)ccn4)cc3)ncc2-c2ccccn2)CC1` [UNC4360A], the figure is 1000 to 30000 nM; as for `O[C@H]1CC[C@H](Nc2nc(Nc3ccc(C#Cc4cc(-c5cccnc5)ccn4)cc3)ncc2-c2ccccn2)CC1` [UNC4361A], 100 to 1000 nM.
Consider `O[C@H]1CC[C@H](Nc2nc(Nc3ccc(C#Cc4cc(-c5cncnc5)ccn4)cc3)ncc2-c2ccccn2)CC1` [UNC4362A], for which the IC50 is 100 to 1000 nM.
The same measure, in the same setting: as for `O[C@H]1CC[C@H](Nc2nc(Nc3ccc(C#Cc4cc(-c5ccncc5)ccn4)cc3)ncc2-c2ccccn2)CC1` [UNC4363A], the figure is 1000 to 30000 nM; as for `CC(C)Nc1ccnc(C#Cc2ccc(Nc3ncc(-c4ccccn4)c(N[C@H]4CC[C@H](O)CC4)n3)cc2)c1` [UNC4364A], 100 to 1000 nM; as for `O[C@H]1CC[C@H](Nc2nc(Nc3ccc(C#Cc4cc(Nc5ncco5)ccn4)cc3)ncc2-c2ccccn2)CC1` [UNC4392A], 1000 to 30000 nM.

Still in this assay, the particulars now being: Table 5.
Compound `COc1cccc(Oc2ccnc(C#Cc3ccc(Nc4ncc(-c5ccccn5)c(N[C@H]5CC[C@H](O)CC5)n4)cc3)c2)c1` [UNC4393A] had an IC50 of 1000 to 30000 nM.
As to `CC(C)Oc1ccnc(C#Cc2ccc(Nc3ncc(-c4ccccn4)c(N[C@H]4CC[C@H](O)CC4)n3)cc2)c1` [UNC4394A], the concentration for half-maximal inhibition (IC50) lay within 100 to 1000 nM.

In the next assay the target is T2, Tyro3 (Homo sapiens, UniProt Q06418).
T2 sequence (Q06418 41-890): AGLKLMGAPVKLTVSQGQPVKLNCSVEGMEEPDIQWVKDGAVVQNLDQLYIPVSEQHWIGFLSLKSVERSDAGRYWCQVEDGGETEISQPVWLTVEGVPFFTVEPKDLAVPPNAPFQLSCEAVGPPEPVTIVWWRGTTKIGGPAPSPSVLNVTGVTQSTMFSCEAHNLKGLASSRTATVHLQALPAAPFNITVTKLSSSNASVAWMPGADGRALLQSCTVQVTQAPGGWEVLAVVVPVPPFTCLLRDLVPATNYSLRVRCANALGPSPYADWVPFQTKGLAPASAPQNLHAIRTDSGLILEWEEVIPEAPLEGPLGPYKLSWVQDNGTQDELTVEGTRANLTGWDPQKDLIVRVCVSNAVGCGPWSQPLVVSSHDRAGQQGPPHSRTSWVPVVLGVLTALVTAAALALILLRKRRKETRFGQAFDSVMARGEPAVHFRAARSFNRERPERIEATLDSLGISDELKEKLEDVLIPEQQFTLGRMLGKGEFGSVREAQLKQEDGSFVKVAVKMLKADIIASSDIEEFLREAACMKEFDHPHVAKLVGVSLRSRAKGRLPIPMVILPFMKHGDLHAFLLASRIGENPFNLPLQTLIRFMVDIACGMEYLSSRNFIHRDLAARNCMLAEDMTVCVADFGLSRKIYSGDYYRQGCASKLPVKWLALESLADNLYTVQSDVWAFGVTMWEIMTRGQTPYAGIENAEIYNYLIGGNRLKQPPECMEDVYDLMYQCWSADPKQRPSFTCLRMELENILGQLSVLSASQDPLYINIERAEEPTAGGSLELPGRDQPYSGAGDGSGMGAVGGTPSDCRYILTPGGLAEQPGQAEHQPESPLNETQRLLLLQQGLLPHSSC
Put plainly: Tyro3 kinase inhibition IC50. Type of assay: biochemical. Particulars: Table 2; read-out: Tyro3 IC50.
As to `CN1CCC(c2ccc(Nc3ncc(-c4ccccn4)c(N[C@H]4CC[C@H](O)CC4)n3)cc2)CC1` [UNC5130A], the IC50 was in the range of 100 to 1000 nM.
Still for that read-out and setting: under `CN1CCCC(c2ccc(Nc3ncc(-c4ccccn4)c(N[C@H]4CC[C@H](O)CC4)n3)cc2)C1` (stereo partly drawn) [UNC5131A] stands 100 to 1000 nM.

Still in this assay, the particulars now being: Table 3; read-out: Tyro3 IC50.
Turning to `Cc1cc(C#Cc2cc(NC(=O)C(C)C)ccn2)ccc1Nc1ncc(-c2ccc(CN3CCN(C)CC3)cc2)c(N[C@H]2CC[C@H](O)CC2)n1` [UNC4048A], the concentration for half-maximal inhibition (IC50) was 10 to 100 nM.

The assay is the same for the next values; noted with them: Table 4; read-out: Tryo3 IC50.
As to `O[C@H]1CC[C@H](Nc2nc(Nc3ccc(C#Cc4cc(-c5ncc[nH]5)ccn4)cc3)ncc2-c2ccccn2)CC1` [UNC4357A], the IC50 was in the range of 100 to 1000 nM.
On the same count and under the same terms, under `O[C@H]1CC[C@H](Nc2nc(Nc3ccc(C#Cc4cc(-c5ccn[nH]5)ccn4)cc3)ncc2-c2ccccn2)CC1` [UNC4360A] stands 100 to 1000 nM; under `O[C@H]1CC[C@H](Nc2nc(Nc3ccc(C#Cc4cc(-c5cccnc5)ccn4)cc3)ncc2-c2ccccn2)CC1` [UNC4361A], 100 to 1000 nM.
The same measure, in the same setting: under `O[C@H]1CC[C@H](Nc2nc(Nc3ccc(C#Cc4cc(-c5cncnc5)ccn4)cc3)ncc2-c2ccccn2)CC1` [UNC4362A] stands 100 to 1000 nM; under `O[C@H]1CC[C@H](Nc2nc(Nc3ccc(C#Cc4cc(-c5ccncc5)ccn4)cc3)ncc2-c2ccccn2)CC1` [UNC4363A], 100 to 1000 nM; under `CC(C)Nc1ccnc(C#Cc2ccc(Nc3ncc(-c4ccccn4)c(N[C@H]4CC[C@H](O)CC4)n3)cc2)c1` [UNC4364A], 10 to 100 nM.
Take `O[C@H]1CC[C@H](Nc2nc(Nc3ccc(C#Cc4cc(Nc5ncco5)ccn4)cc3)ncc2-c2ccccn2)CC1` [UNC4392A]: the IC50 was 100 to 1000 nM.

Staying with this assay, now noted: Table 5; read-out: Tryo3 IC50.
Regarding `COc1cccc(Oc2ccnc(C#Cc3ccc(Nc4ncc(-c5ccccn5)c(N[C@H]5CC[C@H](O)CC5)n4)cc3)c2)c1` [UNC4393A], the IC50 was in the range of 1000 to 30000 nM.
The same measure, in the same setting: as for `CC(C)Oc1ccnc(C#Cc2ccc(Nc3ncc(-c4ccccn4)c(N[C@H]4CC[C@H](O)CC4)n3)cc2)c1` [UNC4394A], the figure is 100 to 1000 nM.

The target of another assay is T3, Mer (Homo sapiens, UniProt Q12866).
T3 sequence (Q12866 21-999): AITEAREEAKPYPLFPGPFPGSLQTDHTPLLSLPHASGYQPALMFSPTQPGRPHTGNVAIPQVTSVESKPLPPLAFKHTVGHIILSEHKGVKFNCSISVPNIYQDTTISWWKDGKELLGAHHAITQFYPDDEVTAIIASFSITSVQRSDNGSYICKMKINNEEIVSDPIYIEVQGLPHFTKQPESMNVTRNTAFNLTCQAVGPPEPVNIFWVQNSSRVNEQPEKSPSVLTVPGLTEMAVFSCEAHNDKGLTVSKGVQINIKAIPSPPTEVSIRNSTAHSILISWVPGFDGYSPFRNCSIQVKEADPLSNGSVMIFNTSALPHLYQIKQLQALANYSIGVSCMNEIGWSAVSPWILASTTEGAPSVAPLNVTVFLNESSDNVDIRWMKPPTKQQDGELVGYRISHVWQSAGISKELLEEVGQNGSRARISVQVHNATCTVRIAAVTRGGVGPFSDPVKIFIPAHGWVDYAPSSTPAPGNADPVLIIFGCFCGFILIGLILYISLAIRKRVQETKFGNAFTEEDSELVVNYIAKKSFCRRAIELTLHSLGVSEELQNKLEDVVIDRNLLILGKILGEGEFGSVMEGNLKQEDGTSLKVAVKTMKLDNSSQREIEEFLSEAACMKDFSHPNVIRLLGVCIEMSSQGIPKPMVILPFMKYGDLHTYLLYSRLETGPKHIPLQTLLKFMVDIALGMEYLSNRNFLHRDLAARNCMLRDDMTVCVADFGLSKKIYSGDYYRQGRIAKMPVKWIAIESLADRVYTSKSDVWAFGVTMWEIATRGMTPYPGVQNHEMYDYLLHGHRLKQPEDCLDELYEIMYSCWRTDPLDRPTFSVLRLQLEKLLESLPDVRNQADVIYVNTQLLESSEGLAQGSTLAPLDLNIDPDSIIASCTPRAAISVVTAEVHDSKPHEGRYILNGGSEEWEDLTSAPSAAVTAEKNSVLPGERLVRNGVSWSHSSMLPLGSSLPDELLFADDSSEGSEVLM
Briefly: Mer kinase inhibition IC50. Type of assay: biochemical. As to conditions: Table 2; read-out: Mer IC50.
Turning to `CN1CCC(c2ccc(Nc3ncc(-c4ccccn4)c(N[C@H]4CC[C@H](O)CC4)n3)cc2)CC1` [UNC5130A], the IC50 was in the range of 10 to 100 nM.
Turning to `CN1CCCC(c2ccc(Nc3ncc(-c4ccccn4)c(N[C@H]4CC[C@H](O)CC4)n3)cc2)C1` (stereo partly drawn) [UNC5131A], the IC50 was in the range of 10 to 100 nM.

Staying with this assay, now noted: Table 3; read-out: Mer IC50.
Take `Cc1cc(C#Cc2cc(NC(=O)C(C)C)ccn2)ccc1Nc1ncc(-c2ccc(CN3CCN(C)CC3)cc2)c(N[C@H]2CC[C@H](O)CC2)n1` [UNC4048A]: the IC50 lay within 10 to 100 nM.

Staying with this assay, now noted: Table 4; read-out: Mer IC50.
Take `O[C@H]1CC[C@H](Nc2nc(Nc3ccc(C#Cc4cc(-c5ncc[nH]5)ccn4)cc3)ncc2-c2ccccn2)CC1` [UNC4357A]: the IC50 lay within 100 to 1000 nM.
Still for that read-out and setting: as for `O[C@H]1CC[C@H](Nc2nc(Nc3ccc(C#Cc4cc(-c5ccn[nH]5)ccn4)cc3)ncc2-c2ccccn2)CC1` [UNC4360A], the figure is 100 to 1000 nM.
On the same count and under the same terms, as for `O[C@H]1CC[C@H](Nc2nc(Nc3ccc(C#Cc4cc(-c5cccnc5)ccn4)cc3)ncc2-c2ccccn2)CC1` [UNC4361A], the figure is 100 to 1000 nM.
With `O[C@H]1CC[C@H](Nc2nc(Nc3ccc(C#Cc4cc(-c5cncnc5)ccn4)cc3)ncc2-c2ccccn2)CC1` [UNC4362A], the IC50 fell in the range of 10 to 100 nM.
For the compound `O[C@H]1CC[C@H](Nc2nc(Nc3ccc(C#Cc4cc(-c5ccncc5)ccn4)cc3)ncc2-c2ccccn2)CC1` [UNC4363A], the IC50 fell in the range of 10 to 100 nM.
Same read-out and setting: as for `CC(C)Nc1ccnc(C#Cc2ccc(Nc3ncc(-c4ccccn4)c(N[C@H]4CC[C@H](O)CC4)n3)cc2)c1` [UNC4364A], the figure is 10 to 100 nM; as for `O[C@H]1CC[C@H](Nc2nc(Nc3ccc(C#Cc4cc(Nc5ncco5)ccn4)cc3)ncc2-c2ccccn2)CC1` [UNC4392A], 100 to 1000 nM.

The same assay, now with this note: Table 5; read-out: Mer IC50.
For the compound `COc1cccc(Oc2ccnc(C#Cc3ccc(Nc4ncc(-c5ccccn5)c(N[C@H]5CC[C@H](O)CC5)n4)cc3)c2)c1` [UNC4393A], the IC50 was 1000 to 30000 nM.
Regarding `CC(C)Oc1ccnc(C#Cc2ccc(Nc3ncc(-c4ccccn4)c(N[C@H]4CC[C@H](O)CC4)n3)cc2)c1` [UNC4394A], the IC50 lay in the range of 100 to 1000 nM.
